Data taken from US4412988A, “Hexapeptides” (Roussel Uclaf, priority 1980, dated 1983).

Test system: rats
Assay: Action against extinction of a practice of active avoiding a negative reinforcement (conditional avoidance response, deWeid apparatus)
Format: in vivo
Conditions: subcutaneous, phosphate-zinc complex, percent relative to conditional responses in first extinction test before treatment; for % of conditional response in course of extinction period after 2 hours: 2 hours after injection, untreated control 60; for % of conditional response in course of extinction period after 4 hours: 4 hours after injection, untreated control 30
Protocol: The action against extinction of a practice of active avoiding a negative reinforcement was determined using an apparatus described by deWeid (Proc. Soc. Ex. Biol. Med.,) Vol. 122 ([…]) p. 28). The practice is effected in a box equipped with a 60 W lamp (conditional stimulus: CS), a mat and an electrifiable floor connected to an electric stimulus which permits the delivery of a painful shock of 75 volts (unconditional stimulus US). The conditional stimulus is present only for 5 seconds, then is associated with an unconditional stimulus just as the animal grips the mat realizing as well the avoidance response desired. The conditional response is acquired when the animal responds to the conditional stimulus.
10 tests at 60 second intervals were effected daily for 3 days and examination of the extinction of the practice realized with suppression of the unconditional stimulus is followed on the 4th day with 3 tests at 2 hour intervals with the animals presenting at least 7 conditional responses.
The compounds were injected subcutaneously as a phosphate-zinc complex before the first test of extinction of practice to group of 5 rats and the results were compared with an untreated control group of rats. The evolution of the conditional response in the course of the period of extinction of practice 2 and 4 hours after the injection of the compound is expressed as the percent of variation with respect to the number of conditional responses observed in the first test of extinction before treatment.

Row | Substance | % of conditional response in course of extinction period after 2 hours (dose 1 μg/rat) [%] | % of conditional response in course of extinction period after 4 hours (dose 1 μg/rat) [%] | % of conditional response in course of extinction period after 2 hours (dose 10 μg/rat) [%] | % of conditional response in course of extinction period after 4 hours (dose 10 μg/rat) [%]
1 | Cyclic disulfide (1→4) of N-[cysteinylglutamylhistidylcysteinyl-D-lysyl]-phenylalanine [Example 3] | 75 | 29 | 70 | 50
2 | Acetate of cyclic disulfide (1→6) of N-[cysteinylalanylalanylphenylalanyl-D-lysyl]-cysteine [Example 1] | 51 | 49 | 76 | 71
3 | Acetate of cyclic disulide (1→4) of N-[Cysteinylalanylanylcysteinyl-D-lysyl]-phenylalanine [Example 2] | 59 | 35 | 71 | 75
